Laboratory results as given in ChEMBL document CHEMBL1201862, “PubChem BioAssay data set” (2004).
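Dose response: 5 concentrations. Exposure: 48 h. Format: 96-well plates. Endpoint: linear interpolation; highest concentration if not reached. At the GI50, growth is halved.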 Calls of active or inactive are those of the source. No stated cut-off is given here; in the data, active = GI50 up to about 1.1 µM and inactive = higher.

Legend:
Experiment in all cases: DTP human tumour cell line panel, 48 h
EKVX = tested on: EKVX
UO-31 = tested on: UO-31
NCI-H522 = tested on: NCI-H522
COLO 205 = tested on: COLO 205
SK-OV-3 = tested on: SK-OV-3
SK-MEL-5 = tested on: SK-MEL-5
MOLT-4 = tested on: MOLT-4
MDA-MB-231 = tested on: MDA-MB-231
U-251 = tested on: U-251
RPMI-8226 = tested on: RPMI-8226
IGROV-1 = tested on: IGROV-1
KM12 = tested on: KM12
MDA-MB-435 = tested on: MDA-MB-435
SF-268 = tested on: SF-268
A549 = tested on: A549
NCI-H460 = tested on: NCI-H460
OVCAR-5 = tested on: OVCAR-5
UACC-257 = tested on: UACC-257
HOP-62 = tested on: HOP-62
ACHN = tested on: ACHN

Structure (SMILES)	GI50 (EKVX)	GI50 (UO-31)	GI50 (NCI-H522)	GI50 (COLO 205)	GI50 (SK-OV-3)	GI50 (SK-MEL-5)	GI50 (MOLT-4)	GI50 (MDA-MB-231)	GI50 (U-251)	GI50 (RPMI-8226)	GI50 (IGROV-1)	GI50 (KM12)	GI50 (MDA-MB-435)	GI50 (SF-268)	GI50 (A549)	GI50 (NCI-H460)	GI50 (OVCAR-5)	GI50 (UACC-257)	GI50 (HOP-62)	GI50 (ACHN)
O=C(Oc1cccnc1)c1cc2cc(CCl)ccc2oc1=O	21.5 µM (inactive)	20 µM (inactive)	17 µM (inactive)	27.2 µM (inactive)	> 100 µM (inactive)	44.6 µM (inactive)	23.3 µM (inactive)	20.8 µM (inactive)	24.3 µM (inactive)	24.5 µM (inactive)	25.5 µM (inactive)	31.6 µM (inactive)	25.9 µM (inactive)	20.8 µM (inactive)	65.3 µM (inactive)	31 µM (inactive)	22.6 µM (inactive)	30.6 µM (inactive)	76.2 µM (inactive)	18.9 µM (inactive)
O=C(NCc1cccs1)OC1CC2CCC1C2 (stereo not given)	> 100 µM (inactive)	> 100 µM (inactive)	> 100 µM (inactive)	> 100 µM (inactive)	> 100 µM (inactive)	> 100 µM (inactive)	> 100 µM (inactive)	> 100 µM (inactive)	> 100 µM (inactive)	> 100 µM (inactive)	> 100 µM (inactive)	> 100 µM (inactive)	> 100 µM (inactive)	> 100 µM (inactive)	> 100 µM (inactive)	> 100 µM (inactive)	> 100 µM (inactive)	> 100 µM (inactive)	> 100 µM (inactive)	> 100 µM (inactive)
C[C@H](CCC(=O)NCC(=O)O)[C@H]1CC[C@H]2[C@@H]3[C@H](O)C[C@@H]4C[C@H](O)CC[C@]4(C)[C@H]3CC[C@]12C	> 100 µM (inactive)	> 100 µM (inactive)	> 100 µM (inactive)	> 100 µM (inactive)	> 100 µM (inactive)	> 100 µM (inactive)	> 100 µM (inactive)	> 100 µM (inactive)	> 100 µM (inactive)	> 100 µM (inactive)	> 100 µM (inactive)	> 100 µM (inactive)	> 100 µM (inactive)	> 100 µM (inactive)	> 100 µM (inactive)	> 100 µM (inactive)	> 100 µM (inactive)	> 100 µM (inactive)	> 100 µM (inactive)	> 100 µM (inactive)
NC1CSc2ccccc2NC1=O (stereo not given)	> 100 µM (inactive)	> 100 µM (inactive)	> 100 µM (inactive)	> 100 µM (inactive)	> 100 µM (inactive)	> 100 µM (inactive)	> 100 µM (inactive)	> 100 µM (inactive)	> 100 µM (inactive)	> 100 µM (inactive)	> 100 µM (inactive)	> 100 µM (inactive)	> 100 µM (inactive)	> 100 µM (inactive)	> 100 µM (inactive)	> 100 µM (inactive)	> 100 µM (inactive)	> 100 µM (inactive)	> 100 µM (inactive)	> 100 µM (inactive)
Cc1ccc2nc(-c3ccccc3)c(N=O)n2c1	20.5 µM (inactive)	66.8 µM (inactive)	36.1 µM (inactive)	35.7 µM (inactive)	> 100 µM (inactive)	46.3 µM (inactive)	28.4 µM (inactive)	17.4 µM (inactive)	38.9 µM (inactive)	36.1 µM (inactive)	35.5 µM (inactive)	40.6 µM (inactive)	40 µM (inactive)	69.2 µM (inactive)	32.7 µM (inactive)	50.1 µM (inactive)	43.5 µM (inactive)	37 µM (inactive)	56 µM (inactive)	46.9 µM (inactive)
CC/C(Cl)=N\OC(=O)Nc1ccc(OC)cc1	5.9 µM (inactive)	7.94 µM (inactive)	0.847 µM (active)	2.11 µM (inactive)	17.5 µM (inactive)	6.18 µM (inactive)	2.07 µM (inactive)	7.06 µM (inactive)	19.5 µM (inactive)	1.9 µM (inactive)	6.71 µM (inactive)	15.1 µM (inactive)	8.04 µM (inactive)	14.3 µM (inactive)	17.2 µM (inactive)	20.2 µM (inactive)	6.11 µM (inactive)	15.7 µM (inactive)	16.5 µM (inactive)	1.92 µM (inactive)
COc1cccc(C[C@H]2COC(=O)[C@]2(O)Cc2cccc(OC)c2)c1	26.5 µM (inactive)	> 100 µM (inactive)	55.7 µM (inactive)	> 100 µM (inactive)	> 100 µM (inactive)	50.9 µM (inactive)	53.1 µM (inactive)	> 100 µM (inactive)	> 100 µM (inactive)	93.3 µM (inactive)	> 100 µM (inactive)	91.2 µM (inactive)	> 100 µM (inactive)	< 0.01 µM (active)	> 100 µM (inactive)	48.2 µM (inactive)	> 100 µM (inactive)	> 100 µM (inactive)	> 100 µM (inactive)	> 100 µM (inactive)
CCCCCCCC(=O)O[C@H]1[C@H]2[C@@H](CC1(C)C)C(=O)[C@]13O[C@H]1C(=O)[C@]1(CO1)[C@]23C	3.66 µM (inactive)	14.3 µM (inactive)	1.3 µM (inactive)	1.23 µM (inactive)	34.3 µM (inactive)	4.06 µM (inactive)	0.251 µM (active)	25.5 µM (inactive)	7.83 µM (inactive)	0.556 µM (active)	4.4 µM (inactive)	7.73 µM (inactive)	24.2 µM (inactive)	6.01 µM (inactive)	30.6 µM (inactive)	5.71 µM (inactive)	11.1 µM (inactive)	2.85 µM (inactive)	17.5 µM (inactive)	2 µM (inactive)
